Results reported in US6649621B2, “Prevention or reversal of sensorineural hearing loss (SNHL) through biologic mechanisms” (The United States of America as represented by the …, priority 1997, dated 2003).
Entries after “also recorded” stand apart in the source; their conditions may differ.

Tests used:
[1] = tested on: noise-induced cochlear damage; conditions: cited from earlier work
[2] = tested on: noise induced hearing loss; assay: Oral rescue agent in an individual with noise induced hearing loss; format: in vivo, human; conditions: 70 mg/kg by mouth, then 35 mg/kg QID for seven days; one patient
Source text: FIG. 5 is a bar graph comparing the speech reception threshold values of an individual who suffered noise induced hearing loss before and after administration of an oral rescue agent. FIG. 6 is a bar graph comparing the word discrimination scores of an individual who suffered noise induced hearing loss before and after administration of an oral rescue agent. An Army Infantryman lost […] hearing protection in one ear during a live fire training evolution. […] received treatment in the form of ant initial dose of 70 mg/kg of L-N-acetyl cysteine (LNAC) by mouth followed by 35 mg/kg LNAC by mouth QID for seven days.

chinchilla model of SNHL = assay: R-PIA on round window membrane, chinchilla 4 kHz octave band noise, evoked potential hearing thresholds; format: in vivo
Source text: (§1) FIG. 1 is a series of graphs which depicts our experimental work with R-PIA in a chinchilla model of SNHL. A 10^−4 M solution of R-PIA was placed on the round window membrane of chinchillas for thirty minutes and saline was placed as a control on round window membrane in the opposite-ear. After thirty minutes the fluids were removed, the surgical sites closed and the animals were exposed to 4 kHz octave band noise at 105 dB SPL for thirty minutes.

[3] = tested on: inner and outer hair cells; assay: R-PIA on round window membrane, chinchilla 4 kHz octave band noise, inner and outer hair cell losses; format: in vivo; conditions: 10^-4 M on round window membrane
Source text: as §1, with “minutes. […] The details of this study have been submitted and recently accepted for publication in a peer-reviewed journal (5).” for “minutes.”

[4] = tested on: inner and outer hair cells; assay: R-PIA on round window membrane, simulated M-16 impulse noise, missing hair cells; format: in vivo, Chinchilla; conditions: 10^-4 M on round window membrane 30 min, 50-salvo volleys, vs saline control ear
[5] = tested on: noise induced permanent hearing loss; assay: R-PIA on round window membrane, impulse noise, frequency specific evoked potential threshold shifts; format: in vivo, Chinchilla; conditions: out to 20 days post-exposure
Source text: FIGS. 3 & 4 illustrate data from Chinchilla exposed to simulated M-16 rifle fire impulse noise (50-salvo volleys). These animals received R-PIA treatment as outlined above (by the application of a dilute (10^−4 molar) solution of R-PIA directly onto the round window membrane for thirty minutes) with saline as a control on the round window membrane of the opposite ear. FIGS. 3 and 4 depict the percentage of missing inner and outer hair cells quantified in the inner ears of animals euthanized after the noise exposure. […] The results of both these tests show the frequency specific evoked potential threshold shifts from the same Chinchilla prior to and after noise exposure (out to 20 days post-exposure).

[6] = tested on: idiopathic sensorineural hearing loss; assay: Treatment of individuals with sudden idiopathic sensorineural hearing loss (oral conventional therapy, then topical round window microcatheter); format: in vivo, human; conditions: one patient each
Source text: FIG. 7 is a bar graph comparing the speech reception threshold values of an individual who suffered an idiopathic sensorineural hearing loss before and after administration of a topical rescue agent.
FIG. 8 is a bar graph comparing the word discrimination scores of an individual who suffered an idiopathic sensorineural hearing loss before and after administration of a topical rescue agent.
FIG. 9 is a bar graph comparing the speech reception threshold values of another individual who suffered an idiopathic sensorineural hearing loss before and after administration of a topical rescue agent.
FIG. 10 is a bar graph comparing the word discrimination scores of another individual who suffered an idiopathic sensorineural hearing loss before and after administration of a topical rescue agent.
A Army Sergeant noted the sudden onset of a severe hearing loss and tinnitus in their left ear. They were initially given one week of conventional therapy with oral prednisone and a trial of close observation. They had no response to this treatment regimen and two weeks after experiencing the hearing loss they were treated with topical methylprednisolone. The topical methylprednisolone was administered in a round window microcatheter (IntraEar Corporation, Denver, Colo.) via a method developed by our group. The methylprednisolone was given in a concentration of 125 mg/ml. […]

SMILES: CCCCS(=N)(=O)CCC(N)C(=O)O (stereo not drawn) [BSO, buthionine sulfoximine]
- hair cell damage and hearing loss associated with noise exposure ([1]; inhibition of GSH synthesis): enhances the hair cell damage and hearing loss associated with noise exposure

SMILES: CC(=O)N[C@@H](CS)C(=O)O [LNAC, L-N-acetyl cysteine]
- speech reception threshold [2]: complete recovery
- word discrimination ability [2]: complete recovery

SMILES: C[C@H](Cc1ccccc1)Nc1ncnc2c1ncn2[C@@H]1O[C@H](CO)[C@@H](O)[C@H]1O [R-PIA, R-N6-Phenylisopropyl adenosine]
- permanent hearing threshold shift / permanent hearing loss (chinchilla model of SNHL; 10^-4 M on round window membrane 30 min, vs saline control ears): significantly less permanent hearing threshold shift in R-PIA treated ears compared to saline treated ears at 4, 8 and 16 kHz; also recorded: significant reduction in permanent hearing loss
- recovery of hearing thresholds (chinchilla model of SNHL; 10^-4 M on round window membrane 30 min before 4 kHz octave band noise 105 dB SPL, days 0, 1, 2, 4 and 20, vs saline ear): faster and more complete recovery of hearing thresholds
- inner hair cell losses ([3]; both conditions): minimal
- reduction in outer hair cell loss ([3]; vs saline control ears): fourfold reduction; also recorded: four-fold reduction
- inner and outer hair cell loss [4]: significant reduction of inner and outer hair cell loss
- permanent hearing loss ([5]; vs ears that received no treatment): reduction of permanent hearing loss in R-PIA treated ears as compared to ears that received no treatment
- permanent hearing loss ([5]; vs saline treated (control) ears, variety of frequencies): reduction of permanent hearing loss in R-PIA treated ears as compared to saline treated (control) ears

SMILES: Oc1ncnc2[nH]ncc12 [allopurinol]
- cochlear action potential and cochlear microphonic threshold shifts ([1]; given before and during damaging noise exposure): attenuate cochlear action potential and cochlear microphonic threshold shifts

SMILES: C[C@]12C=CC(=O)C=C1CC[C@@H]1[C@@H]2C(=O)C[C@@]2(C)[C@H]1CC[C@]2(O)C(=O)CO [prednisone]
- response of sudden hearing loss to conventional therapy [6]: no response
